The values that follow come from US20220073874A1, “METHODS FOR ENHANCING DIRECT REPROGRAMMING OF CELLS” (UNIVERSITY OF SOUTHERN CALIFORNIA, priority 2020, published 2022).

Data set [1] concerns mouse embryonic fibroblasts (MEFs). The data set can be described thus: viable cells by FSC and SSC profile via FACS. The conditions noted are these: 6FDDRR, 4 dpi (FIG. 9L).
Data set [2] shares this test system. Nature of the data set: EdU incorporation (DNA synthesis, S phase) by flow cytometry. In general terms: In flow cytometry, cells or beads pass a laser one at a time.
For data set [3] the test system is unchanged. Nature of the data set: EU incorporation (transcription rate) by flow cytometry. It counts as cell-based. The conditions noted are these: Control-Pure and 6FDDRR cells, 4 dpi (FIG. 2L).
Data set [4] has the same test system. The data set is classed as cell-based. The conditions noted are these: 6FDD condition, 14 dpi (FIG. 9G).
The test system is the same in data set [5]. The data set can be described thus: biotinylated-trimethylpsoralen (bTMP) immunofluorescence, negative DNA supercoiling. It counts as cell-based. The conditions noted are these: 100 μM for 15 minutes (FIG. 12A-B). The procedure: Biotinylated-trimethylpsoralen (bTMP) Immunofluorescence. One day after addition of N3 media (and without addition of glial cultures), cells were treated with 1 μM aphidicolin for 1.5-2 hours in N3 media. For control experiments, MEFs were treated with or without 100 μM bleomycin prior to incubation with psoralen. Then cells were incubated with 0.3 mg/mL EZ-Link Psoralen-PEG3-Biotin (Thermo Cat. No: 29986) for 15 minutes. Cultures were then exposed to 3 kJ m-2 of […] light (Fotodyne UV Transilluminator 3-3000 with 15W bulbs) for 15 minutes at room temperature in the dark followed by 3 washes in PBS. Then cells were fixed with cold 70% ethanol for 30 minutes at 4° C. followed by another 3 washes in PBS. Cells were then incubated with Alexa Fluor 594 Streptavidin (Thermo Cat. No: 532356) for one hour at room temperature in the dark, washed with PBS 3 times, and then stained with Hoescht (1:1000) for 10 minutes at room temperature in the dark. Coverslips were mounted onto glass slides using lmmuMount and imaged using the Zeiss LSM 800 confocal microscope.

As to `C[C@@]1(CO)[C@H](O)CC[C@@]2(C)[C@H]1CC[C@H]1C[C@@H]3C[C@@]12CC[C@]3(O)CO` [Aphidicolin, aphidicolin], the “cell count (total viable cells)” value in data set [1] is “only slightly reducing”. Moreover, in data set [2] (EdU incorporation at 4 dpi, 1 μM for 18 hours, 6FDDRR (FIG. 9J-K)), the “percent of cells in S phase” value was “dramatically reduced”. In addition, the EdU incorporation result in data set [2] (uninfected MEFs, 10 μM for 2 hr (FIG. 12N)) was “did not incorporate EdU”. Moreover, in data set [3], the transcription rates result is listed as “increased”.
`CO[C@@]12[C@H](COC(N)=O)C3=C(C(=O)C(C)=C(N)C3=O)N1C[C@@H]1N[C@@H]12` [mitomycin C]: the iMN conversion result in data set [4] was “impaired”.
bleomycin: the “biotinylated TMP intercalation” value in data set [5] is recorded as “decreased”.
